Columns and labels:
HLA-A*02:01 molecule [1] = biological target: T1, HLA-A*02:01 molecule (Homo sapiens, UniProt P04439, D140Y/D185E/D98H/E176V/E277Q/G131W/G231S/I119V/I121R/I166T/I218V/L300P/L318F/N151K/N90K/P208A/P217A/Q86G/Q94H/R138H/R169H/T345S); assay: Peptide binding affinity assay in TAP-deficient T2 cells; assay type: cell-based; details: peptide 5, 10, 20, 50 and 100 μM, 16 h at 27°C + 2 h at 37 °C, anti HLA-A2 R-PE, flow cytometry, triplicate
T1 construct: host or cells: T2 (174xCEM.T2) human TAP-deficient cells
Procedure: Peptide binding affinity to HLA-A*02:01 molecule and BFA decay assays were performed for each candidate peptide. Human TAP-deficient T2 cell line (174xCEM.T2; ATCC CRL 1992™) was purchased from American Type Culture Collection (ATCC; https://www.atcc.org/) and cultured in Iscove's modified Dulbecco's medium (IMDM; Gibco Life Technologies) containing 25 mM HEPES and 2 mM L-Glut, supplemented with 20% fetal bovine serum (FBS; Capricorn Scientific GmbH), 100 IU/ml penicillin and 100 μg/ml streptomycin (Gibco Life Technologies). Cells were maintained at 37 °C in a humidified incubator with 5% CO2. Briefly, T2 were seeded at 3.5 × 10^5 cells per well in 24 well plates and incubated 16 h at 27°C with peptides (final concentrations: 5, 10, 20, 50 and 100 μM) in IMDM serum free medium. The next day, cells have been incubated for additional 2 h at 37 °C. Following incubation, cells were harvested and centrifuged at 200 × g for 5 min. Subsequently, cells were washed twice with phosphate buffered saline (1X PBS; Gibco Life Technologies) and stained with R-PE conjugated anti human HLA-A2 mono-clonal antibody (cat. 343,306; BioLegend), for 30 min at 4 °C, and analyzed with the Attune™ NxT flow cytometer (Thermo Fisher Scientific). […] A fluorescence index (FI) was calculated using the following formula: FI = [mean fluorescence intensity (MFI) sample – MFI background]/MFI background, where MFI background represents the value without peptide. […] Cells were harvested every two hours (T0, T2, T4, T6, T8), washed with phosphate buffered saline (1X PBS; Gibco Life Technologies), stained with anti HLA-A*0201 fluorescent monoclonal antibody (cat. 343,306; BioLegend) and analyzed by flow cytometry. The stability of each peptide bound to HLA-A*02:01 was measured as the DC50 value, which was defined as an estimate of the time required for a 50% reduction of the MFI value at time 0. The DC50 value was calculated according to the formula: MFI at indicated time points/MFI at time 0 × 100. […]

HLA-A*02:01 molecule [2] = biological target: T1, HLA-A*02:01 molecule; assay: BFA decay assay (peptide-MHC dissociation) in T2 cells; assay type: cell-based; details: peptide 50 μM, 1X BFA 1 h at 37°C, harvested every two hours T0-T8, flow cytometry, triplicate
Procedure: Cells were maintained at 37 °C in a humidified incubator with 5% CO2.

For VIAGIVALV, the “binding to HLA-A*02:01 (HLA surface expression on T2 cells)” value (“binding” below) (HLA-A*02:01 molecule [1]) was “dose-dependent increase in the HLA surface expression on T2 cells over the background”.
With VVAGIIALV the “binding” value (HLA-A*02:01 molecule [1]) was “dose-dependent increase in the HLA surface expression on T2 cells over the background”.
In the case of “VVAGIVVLV [TAA derived from the colon ca-associated EPCAM protein]”, the “binding” value (HLA-A*02:01 molecule [1]) is reported as “dose-dependent increase in the HLA surface expression on T2 cells over the background” and the “50% dissociation value (Thalf), peptide-MHC dissociation kinetics” value (HLA-A*02:01 molecule [2]) is reported as 4 h.
